Key:
Format in all cases: biochemical
[1] = biological target: T1, PI3Kδ (Homo sapiens, UniProt O00329); experiment: PI3 Kinase HTRF assay, PI3Kδ; details: 10 μM PIP2, 10 μM ATP; read-out: PI3K δ IC50
T1 construct: purchased Millipore Corporation 14-604-K
Excerpt: (§1) A PI3 Kinase HTRF® assay kit (cat No. 33-016) purchased from Millipore Corporation was used to screen compounds disclosed herein. This assay used specific, high affinity binding of the GRP1 pleckstrin homology (PH) domain to PIP3, the product of a Class 1A or 1B PI3 Kinase acting on its physiological substrate PIP2. During the detection phase of the assay, a complex was generated between the GST-tagged PH domain and biotinylated short chain PIP3. The biotinylated PIP3 and the GST-tagged PH domain recruited fluorophores (Streptavidin-Allophycocyanin and Europium-labeled anti-GST respectively) to form the fluorescence resonance energy transfer (FRET) architecture, generating a stable time-resolved FRET signal. The FRET complex was disrupted in a competitive manner by non-biotinylated PIP3, a product formed in the PI3 Kinase assay.
(§2) PI3 Kinase α, β, γ and δ activity was assayed using the PI3 Kinase HTRF® assay kit (catalogue No. 33-016) purchased from Millipore Corporation. Purified recombinant PI3Kα (catalogue No. 14-602-K), PI3Kβ (catalogue No. 14-603-K), PI3Kγ (catalogue No. 14-558-K) and PI3Kδ (catalogue No. 14-604-K) were obtained from Millipore Corporation. Purified recombinant PI3K enzyme was used to catalyze the phosphorylation of phosphatidylinositol 4,5-bisphosphate (PIP2 at 10 μM) to phosphatidylinositol 3,4,5-trisphosphate (PIP3) in the presence of 10 μM ATP. The assay was carried out in 384-well format and detected using a Perkin Elmer En Vision Xcite Multilabel Reader. Emission ratios were converted into percent inhibitions and imported into GraphPad Prism software. The concentration necessary to achieve inhibition of enzyme activity by 50% (IC50) was calculated using concentrations ranging from 20 μM to 0.1 nM (12-point curve). IC50 values were determined using a nonlinear regression model available in GraphPad Prism 5. […]

[2] = biological target: T2, PI3Kγ (Homo sapiens, UniProt P48736); experiment: PI3 Kinase HTRF assay, PI3Kγ; details: 10 μM PIP2, 10 μM ATP; read-out: PI3K γ IC50
T2 construct: purchased Millipore Corporation 14-558-K
T2 sequence (P48736 whole entry): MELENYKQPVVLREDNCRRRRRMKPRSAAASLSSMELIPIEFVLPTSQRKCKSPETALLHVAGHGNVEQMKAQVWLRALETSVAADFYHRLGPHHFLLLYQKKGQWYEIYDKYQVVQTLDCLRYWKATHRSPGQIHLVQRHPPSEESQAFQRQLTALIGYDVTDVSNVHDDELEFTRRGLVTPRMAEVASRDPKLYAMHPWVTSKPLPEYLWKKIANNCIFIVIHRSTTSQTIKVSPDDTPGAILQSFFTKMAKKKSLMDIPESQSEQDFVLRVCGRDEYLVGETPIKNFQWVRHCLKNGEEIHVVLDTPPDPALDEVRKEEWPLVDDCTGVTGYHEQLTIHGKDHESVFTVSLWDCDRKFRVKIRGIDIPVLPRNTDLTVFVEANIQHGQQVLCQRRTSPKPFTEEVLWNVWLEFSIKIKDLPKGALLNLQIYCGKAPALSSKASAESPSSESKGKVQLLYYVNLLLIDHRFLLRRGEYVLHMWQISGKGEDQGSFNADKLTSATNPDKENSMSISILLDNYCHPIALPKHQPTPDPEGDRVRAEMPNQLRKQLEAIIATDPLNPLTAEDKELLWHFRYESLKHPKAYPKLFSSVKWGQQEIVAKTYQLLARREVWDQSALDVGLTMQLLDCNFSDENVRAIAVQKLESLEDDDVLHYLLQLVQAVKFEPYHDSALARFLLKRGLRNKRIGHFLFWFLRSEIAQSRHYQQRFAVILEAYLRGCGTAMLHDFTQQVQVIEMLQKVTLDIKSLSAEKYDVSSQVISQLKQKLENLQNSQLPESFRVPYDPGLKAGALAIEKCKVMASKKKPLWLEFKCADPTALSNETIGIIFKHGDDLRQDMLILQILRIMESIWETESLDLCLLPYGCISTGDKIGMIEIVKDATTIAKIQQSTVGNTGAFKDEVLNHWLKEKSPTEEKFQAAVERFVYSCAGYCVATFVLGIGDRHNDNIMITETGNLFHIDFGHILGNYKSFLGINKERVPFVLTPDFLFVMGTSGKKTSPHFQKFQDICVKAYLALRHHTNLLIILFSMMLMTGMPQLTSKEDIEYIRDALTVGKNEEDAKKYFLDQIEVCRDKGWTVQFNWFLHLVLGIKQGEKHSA
Excerpt: as §1, §2

[3] = biological target: T3, PI3Kα (Homo sapiens, UniProt P42336); experiment: PI3 Kinase HTRF assay, PI3Kα; details: 10 μM PIP2, 10 μM ATP; read-out: PI3K α IC50
T3 construct: purchased Millipore Corporation 14-602-K
T3 sequence (P42336 whole entry): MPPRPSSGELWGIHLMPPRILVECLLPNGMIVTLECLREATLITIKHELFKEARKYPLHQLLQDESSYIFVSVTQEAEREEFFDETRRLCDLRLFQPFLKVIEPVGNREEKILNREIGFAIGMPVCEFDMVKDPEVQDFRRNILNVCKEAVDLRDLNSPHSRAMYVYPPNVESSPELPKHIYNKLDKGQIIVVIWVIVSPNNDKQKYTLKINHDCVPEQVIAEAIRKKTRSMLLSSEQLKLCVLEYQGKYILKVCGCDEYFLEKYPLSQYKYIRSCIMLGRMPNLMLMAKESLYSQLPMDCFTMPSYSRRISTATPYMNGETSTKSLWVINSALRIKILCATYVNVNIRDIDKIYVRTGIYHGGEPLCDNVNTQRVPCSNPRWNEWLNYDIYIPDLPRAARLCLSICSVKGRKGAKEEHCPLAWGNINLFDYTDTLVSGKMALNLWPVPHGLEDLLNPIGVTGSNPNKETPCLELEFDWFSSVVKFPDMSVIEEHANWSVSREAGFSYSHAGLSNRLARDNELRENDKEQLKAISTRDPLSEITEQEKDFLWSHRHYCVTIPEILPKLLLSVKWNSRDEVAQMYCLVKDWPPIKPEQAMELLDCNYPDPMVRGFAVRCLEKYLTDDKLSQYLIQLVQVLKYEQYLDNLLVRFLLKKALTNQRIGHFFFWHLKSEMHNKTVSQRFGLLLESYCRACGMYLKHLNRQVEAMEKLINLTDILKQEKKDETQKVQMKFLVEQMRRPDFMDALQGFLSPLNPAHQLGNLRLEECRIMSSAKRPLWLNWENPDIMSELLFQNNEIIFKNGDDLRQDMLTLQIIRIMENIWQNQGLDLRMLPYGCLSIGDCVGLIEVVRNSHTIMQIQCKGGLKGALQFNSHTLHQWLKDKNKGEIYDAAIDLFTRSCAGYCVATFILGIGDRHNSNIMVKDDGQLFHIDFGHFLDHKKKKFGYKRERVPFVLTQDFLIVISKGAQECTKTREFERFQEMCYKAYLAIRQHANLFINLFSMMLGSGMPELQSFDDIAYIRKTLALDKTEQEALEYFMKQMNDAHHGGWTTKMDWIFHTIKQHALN
T3 sequence (P27986 whole entry partner): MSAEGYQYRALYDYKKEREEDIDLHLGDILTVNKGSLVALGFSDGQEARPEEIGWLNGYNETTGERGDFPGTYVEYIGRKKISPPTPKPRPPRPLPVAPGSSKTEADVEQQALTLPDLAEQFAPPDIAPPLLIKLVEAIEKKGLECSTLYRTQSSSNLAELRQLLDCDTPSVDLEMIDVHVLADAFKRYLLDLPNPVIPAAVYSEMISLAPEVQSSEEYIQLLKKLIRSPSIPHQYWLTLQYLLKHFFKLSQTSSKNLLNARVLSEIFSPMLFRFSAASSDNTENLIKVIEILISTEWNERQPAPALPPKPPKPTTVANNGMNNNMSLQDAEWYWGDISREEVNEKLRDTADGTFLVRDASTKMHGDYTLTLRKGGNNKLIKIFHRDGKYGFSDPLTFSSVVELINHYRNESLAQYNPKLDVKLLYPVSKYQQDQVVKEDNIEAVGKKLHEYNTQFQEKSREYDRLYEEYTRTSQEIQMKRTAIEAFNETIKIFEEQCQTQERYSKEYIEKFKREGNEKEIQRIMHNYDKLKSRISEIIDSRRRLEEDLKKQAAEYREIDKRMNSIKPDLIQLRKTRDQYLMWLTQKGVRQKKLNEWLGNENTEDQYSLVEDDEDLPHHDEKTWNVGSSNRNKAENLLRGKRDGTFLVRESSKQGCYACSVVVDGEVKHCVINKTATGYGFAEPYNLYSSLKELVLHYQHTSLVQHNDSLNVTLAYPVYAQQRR
Excerpt: as §1, §2

[4] = biological target: T4, PI3Kβ (Homo sapiens, UniProt P42338); experiment: PI3 Kinase HTRF assay, PI3Kβ; details: 10 μM PIP2, 10 μM ATP; read-out: PI3K β IC50
T4 construct: purchased Millipore Corporation 14-603-K
T4 sequence (P42338 whole entry): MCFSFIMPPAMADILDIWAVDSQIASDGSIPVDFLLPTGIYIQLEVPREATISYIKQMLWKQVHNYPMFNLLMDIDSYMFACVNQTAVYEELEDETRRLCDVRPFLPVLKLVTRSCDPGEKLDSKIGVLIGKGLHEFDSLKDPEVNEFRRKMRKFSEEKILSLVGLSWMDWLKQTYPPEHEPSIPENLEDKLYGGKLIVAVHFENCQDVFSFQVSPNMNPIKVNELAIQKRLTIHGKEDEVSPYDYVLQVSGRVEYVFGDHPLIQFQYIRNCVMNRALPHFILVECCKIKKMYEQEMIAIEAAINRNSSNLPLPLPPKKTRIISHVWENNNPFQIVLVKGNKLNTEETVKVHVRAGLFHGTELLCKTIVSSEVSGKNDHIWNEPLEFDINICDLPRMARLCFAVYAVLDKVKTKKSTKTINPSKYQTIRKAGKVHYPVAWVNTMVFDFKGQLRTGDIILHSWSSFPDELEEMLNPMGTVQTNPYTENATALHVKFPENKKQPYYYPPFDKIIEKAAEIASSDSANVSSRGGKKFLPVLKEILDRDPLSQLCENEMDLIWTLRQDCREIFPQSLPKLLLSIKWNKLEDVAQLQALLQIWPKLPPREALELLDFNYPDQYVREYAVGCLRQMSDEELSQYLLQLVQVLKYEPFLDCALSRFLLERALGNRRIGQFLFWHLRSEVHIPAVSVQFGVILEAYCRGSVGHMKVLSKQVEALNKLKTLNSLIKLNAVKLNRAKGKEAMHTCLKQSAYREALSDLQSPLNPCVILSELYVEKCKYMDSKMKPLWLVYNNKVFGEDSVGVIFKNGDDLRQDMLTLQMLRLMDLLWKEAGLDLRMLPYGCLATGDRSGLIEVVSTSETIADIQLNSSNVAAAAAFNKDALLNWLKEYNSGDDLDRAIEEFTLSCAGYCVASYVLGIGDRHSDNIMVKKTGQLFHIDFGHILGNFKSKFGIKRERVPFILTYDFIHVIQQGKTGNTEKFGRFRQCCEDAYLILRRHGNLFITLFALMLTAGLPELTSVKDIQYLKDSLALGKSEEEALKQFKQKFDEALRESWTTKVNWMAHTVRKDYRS
T4 sequence (P27986 whole entry partner): as the sequence (P27986 whole entry partner) above
Excerpt: as §1, §2

T1 sequence (O00329 whole entry): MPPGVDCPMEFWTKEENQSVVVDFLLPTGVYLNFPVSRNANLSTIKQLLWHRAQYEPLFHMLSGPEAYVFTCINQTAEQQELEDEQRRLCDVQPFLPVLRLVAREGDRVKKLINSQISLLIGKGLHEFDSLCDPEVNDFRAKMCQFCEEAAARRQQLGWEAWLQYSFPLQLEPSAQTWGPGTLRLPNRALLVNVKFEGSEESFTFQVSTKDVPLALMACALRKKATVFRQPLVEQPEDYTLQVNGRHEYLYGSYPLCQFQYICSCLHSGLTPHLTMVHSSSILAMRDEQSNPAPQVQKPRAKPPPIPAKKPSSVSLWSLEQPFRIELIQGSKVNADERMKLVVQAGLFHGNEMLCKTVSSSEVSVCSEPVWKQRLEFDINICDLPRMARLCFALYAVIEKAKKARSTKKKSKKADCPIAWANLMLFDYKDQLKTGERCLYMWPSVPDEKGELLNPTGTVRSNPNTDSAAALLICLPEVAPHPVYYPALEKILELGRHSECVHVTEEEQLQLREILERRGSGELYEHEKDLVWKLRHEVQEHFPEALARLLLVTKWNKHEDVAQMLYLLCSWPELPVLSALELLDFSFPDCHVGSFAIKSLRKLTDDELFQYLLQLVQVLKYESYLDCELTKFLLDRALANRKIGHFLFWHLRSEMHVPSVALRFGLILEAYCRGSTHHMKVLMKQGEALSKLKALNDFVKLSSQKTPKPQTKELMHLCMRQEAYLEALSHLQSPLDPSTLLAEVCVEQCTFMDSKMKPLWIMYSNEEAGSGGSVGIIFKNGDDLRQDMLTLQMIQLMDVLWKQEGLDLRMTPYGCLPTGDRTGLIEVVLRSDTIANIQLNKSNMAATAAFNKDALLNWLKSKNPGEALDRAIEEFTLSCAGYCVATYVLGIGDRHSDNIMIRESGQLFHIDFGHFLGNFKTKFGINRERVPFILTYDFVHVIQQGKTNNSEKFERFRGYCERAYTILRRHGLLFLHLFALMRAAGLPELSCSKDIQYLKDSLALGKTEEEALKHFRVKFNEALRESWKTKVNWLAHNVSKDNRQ
T1 sequence (P27986 whole entry partner): as the sequence (P27986 whole entry partner) above

| SMILES | IC50 [1] | IC50 [2] | IC50 [3] | IC50 [4] |
| --- | --- | --- | --- | --- |
| C[C@H](Nc1ncnc2[nH]cnc12)c1cc2cccc(Cl)c2c(C(=O)N2CC(O)C2)n1 [Compound 22] | < 0.1 µM | < 1 µM | > 10 µM | < 10 µM |
| C[C@H](Nc1ncnc2[nH]cnc12)c1cc2cccc(Cl)c2c(C(=O)N(C)c2ccccc2)n1 [Compound 27] | < 1 µM | < 10 µM | > 10 µM | > 10 µM |
| C[C@H](Nc1ncnc2[nH]cnc12)c1cc2cccc(Cl)c2c(C(=O)N2CCC(O)CC2)n1 [Compound 28] | < 0.1 µM | < 1 µM | > 10 µM | > 10 µM |
| Cc1nc(-c2nc([C@H](C)Nc3ncnc4[nH]cnc34)cc3cccc(Cl)c23)no1 [Compound 32] | < 1 µM | < 10 µM | > 10 µM | < 10 µM |
| C[C@H](Nc1ncnc2[nH]cnc12)c1cc2cccc(Cl)c2c(C(=O)NC2CCOCC2)n1 [Compound 48] | < 0.1 µM | < 10 µM | > 10 µM | > 10 µM |
| C[C@H](Nc1ncnc2[nH]cnc12)c1cc2cc(F)ccc2c(CCN2CCOCC2)n1 [Compound 55] | < 1 µM | > 10 µM | > 10 µM | > 10 µM |
| C[C@H](Nc1ncnc2[nH]cnc12)c1cc2cccc(Cl)c2c(C(=O)NC2CCC(O)CC2)n1 (some centres unmarked) [Compound 58] | < 0.1 µM | < 10 µM | > 10 µM | > 10 µM |
| C[C@H](Nc1ncnc2scnc12)c1cc2cccc(Cl)c2c(CCN2CCOCC2)n1 [Compound 72, (S)—N-(1-(8-chloro-1-(2-morpholinoethyl)isoquinolin-3-yl)ethyl)thiazolo[5,4-d]pyrimidin-7-amine] | < 0.1 µM | < 10 µM | < 10 µM | < 1 µM |
| C[C@H](Nc1cc(Cl)nn2ccnc12)c1cc2cccc(Cl)c2c(CCN2CCOCC2)n1 [Compound 76, (S)-6-chloro-N-(1-(8-chloro-1-(2-morpholinoethyl)isoquinolin-3-yl)ethyl)imidazo[1,2-b]pyridazin-8-amine] | < 10 µM | > 10 µM | > 10 µM | > 10 µM |
| C[C@H](Nc1ncnc2[nH]cnc12)c1cc2cccc(Cl)c2c(OCC(C)(C)O)n1 [Compound 88] | < 1 µM | < 10 µM | < 10 µM | < 10 µM |
| C[C@H](Nc1ncnc2cccnc12)c1cc2cccc(Cl)c2c(N2CCN(C)CC2)n1 [Compound 96] | < 0.1 µM | < 0.1 µM | < 1 µM | < 1 µM |
| C[C@H](Nc1ccnc2ccnn12)c1cc2cccc(Cl)c2c(N2CCN(C)CC2)n1 [Compound 97] | < 0.1 µM | > 10 µM | > 10 µM | < 10 µM |
| C[C@H](Nc1ncnc2[nH]cnc12)c1cc2cccc(C(F)(F)F)c2c(N2CCN(C)CC2)n1 [Compound 111] | < 1 µM | < 10 µM | > 10 µM | < 10 µM |
| C[C@H](Nc1ncnc2cccnc12)c1cc2cccc(Cl)c2c(C(=O)N2CCOCC2)n1 [Compound 115] | < 0.1 µM | < 1 µM | < 10 µM | < 10 µM |
| C[C@H](NC(=O)c1cnc2cccnn12)c1cc2cccc(Cl)c2c(C(=O)N2CCOCC2)n1 [Compound 117] | < 1 µM | < 10 µM | > 10 µM | < 10 µM |
| C[C@H](NC(=O)c1nccnc1N)c1cc2cccc(Cl)c2c(C(=O)N2CCOCC2)n1 [Compound 118] | < 1 µM | < 10 µM | > 10 µM | < 10 µM |
| C[C@H](Nc1ncnc2[nH]cnc12)c1cc2cccc(Cl)c2c(C(=O)N(C)C2CCOCC2)n1 [Compound 126] | < 1 µM | < 10 µM | > 10 µM | > 10 µM |
| CNC(=O)NCCOc1nc([C@H](C)Nc2ncnc3[nH]cnc23)cc2cccc(Cl)c12 [Compound 139] | < 1 µM | < 10 µM | > 10 µM | < 10 µM |
| C[C@H](Nc1ncnc2[nH]cnc12)c1cc2cccc(-c3cnn(C)c3)c2c(N2CCN(C)CC2)n1 [Compound 142] | < 1 µM | > 10 µM | > 10 µM | < 10 µM |
| C[C@H](Nc1ncnc2cccnc12)c1cc2cccc(Cl)c2c(C(=O)NC2CCOCC2)n1 [Compound 143] | < 1 µM | < 10 µM | > 10 µM | > 10 µM |
| Cc1cccc2cc([C@H](C)Nc3ncnc4[nH]cnc34)nc(C(=O)N3CCOCC3)c12 [Compound 147] | < 1 µM | < 10 µM | > 10 µM | > 10 µM |
| C[C@H](Nc1ncnc2cccnc12)c1cc2cccc(-c3cnn(C)c3)c2c(OCCN2CCCC2)n1 [Compound 148] | < 1 µM | < 10 µM | < 10 µM | > 10 µM |
| C[C@H](Nc1ncnc2cccnc12)c1cc2cccc(-c3cnn(C)c3)c2c(CCN2CCOCC2)n1 [Compound 154] | < 1 µM | < 10 µM | < 10 µM | > 10 µM |
| C[C@H](Nc1ncnc2cccnc12)c1cc2cccc(Cl)c2c(C(=O)N2CCOC[C@H]2C)n1 [Compound 251] |  | < 1 µM |  |  |
| C[C@H](Nc1ncnc2scnc12)c1cc2cccc(Cl)c2c(C(=O)N2CCOC[C@H]2C)n1 [Compound 252] |  | < 10 µM |  |  |

Continued, values first:

| IC50 [1] | IC50 [2] | IC50 [3] | IC50 [4] | SMILES |
| --- | --- | --- | --- | --- |
| < 1 µM | < 10 µM | > 10 µM | < 10 µM | C[C@H](Nc1ncnc2[nH]cnc12)c1cc2cccc(Cl)c2c(CN2CCC2)n1 [Compound 9] |
| < 1 µM | < 10 µM | > 10 µM | > 10 µM | C[C@H](Nc1ncnc2[nH]cnc12)c1cc2cccc(Cl)c2c(CC(=O)N2CCOCC2)n1 [Compound 35] |
| < 10 µM | > 10 µM | > 10 µM | > 10 µM | C[C@H](Nc1cc(Cl)nn2ccnc12)c1cc2ccccc2c(CCN2CCOCC2)n1 [Compound 78] |
| < 1 µM | > 10 µM | > 10 µM | > 10 µM | C[C@H](Nc1ncnc2[nH]cnc12)c1nc(CCN2CCOCC2)c2ccccc2c1F [Compound 87] |
| < 1 µM | < 10 µM | > 10 µM | < 10 µM | C[C@H](NC(=O)c1nccnc1N)c1cc2cccc(Cl)c2c(CCN2CCOCC2)n1 [Compound 89, (S)-3-amino-N-(1-(8-chloro-1-(2-morpholinoethyl)isoquinolin-3-yl)ethyl)pyrazine-2-carboxamide] |
| < 0.1 µM | < 1 µM | < 10 µM | < 10 µM | C[C@H](Nc1ncnc2[nH]cnc12)c1cc2cccc(Cl)c2c(SCC[N+]2([O-])CCOCC2)n1 [Compound 94] |
| < 0.1 µM | > 10 µM | > 10 µM | > 10 µM | C[C@H](Nc1ncnc2[nH]cnc12)c1cc2cccc(F)c2c(N2CCN(C)CC2)n1 [Compound 100] |
| < 0.1 µM | < 1 µM | < 1 µM | < 10 µM | C[C@H](Nc1ncnc2cccnc12)c1cc2cccc(Cl)c2c(OCCN2CCCC2)n1 [Compound 105] |
| < 0.1 µM | < 10 µM | > 10 µM | < 10 µM | C[C@H](Nc1ccnc2ccnn12)c1cc2cccc(Cl)c2c(OCCN2CCCC2)n1 [Compound 106] |
| < 0.1 µM | < 10 µM | > 10 µM | < 10 µM | Cc1cccc2cc([C@H](C)Nc3ncnc4[nH]cnc34)nc(N3CCN(C)CC3)c12 [Compound 109] |
| < 10 µM | < 1 µM | > 10 µM | > 10 µM | C[C@H](Nc1ncnc2[nH]cnc12)c1cc2cccc(Cl)c2c(OCC(=O)O)n1 [Compound 128, (S)-2-(3-(1-(9H-purin-6-ylamino)ethyl)-8-chloroisoquinolin-1-yloxy)acetic acid] |
| < 0.1 µM | < 10 µM | > 10 µM | < 10 µM | C[C@H](Nc1nc(N)ncc1C(F)(F)F)c1cc2cccc(Cl)c2c(CCN2CCOCC2)n1 [Compound 130] |
| < 1 µM | > 10 µM | > 10 µM | > 10 µM | C[C@H](Nc1ncnc2[nH]cnc12)c1cc2cccc(Cl)c2c(S(=O)(=O)CCN2CCOCC2)n1 [Compound 134] |
